Our source for the IC50 values is patent publication US20070155746A1, “NOVEL SUBSTITUTED PYRIDINYLOXY AND PYRIMIDINYLOXY AMIDES USEFUL AS INHIBITORS OF PROTEIN KINASES” (KALYPSYS, INC., priority 2005, published 2007).

Common to all, as to type: biochemical
Assay [1] has as its target T1, human B-Raf protein kinase (Homo sapiens, UniProt P15056).
T1 construct: GST (N); purchased Upstate Inc. 14-530 (B-Raf); 14-420 (Mek1)
Put plainly: In vitro B-Raf/Mek1 composite kinase assay. How it is done: In Vitro B-Raf/Mek1 Composite Kinase Assay
2.5 μl of B-Raf kinase buffer (20 mM MOPS [pH 7.2], 25 mM sodium glycerophosphate, 2 mM EGTA [pH 8.0], 1 mM sodium orthovanadate, 1 mM dithiothreitol, 10 mM MgCl2, 0.03% Brij-35, 0.3 mg/ml bovine serum albumin) containing lng of recombinant, N-terminal GST-tagged human B-Raf protein kinase (Δ1-415, Upstate Inc., cat. #14-530) is dispensed to wells of a 1536 multi-well white solid plate. 60 nl of 100× concentration of test compound in DMSO is dispensed to the well by passive pin transfer and incubated for 15 minutes at room temperature (approx. 22° C.). […] The assay plates are sealed and maintained in a humidified environment. After 2 hours, 2.5 μl of PKLight protein kinase assay reagent (Cambrex, cat. #LT07-501) is dispensed. After an additional 5 minute incubation at room temperature, luminescence activity is measured on a Molecular Devices Analyst multi-mode plate reader or other suitable plate reader. Kinase inhibition results in less ATP depletion, and therefore increased luminescence signal. Negative control activity is measured with DMSO lacking any test compound. The positive control is [N-(3-trifluoromethyl-4-chlorophenyl)-N′-(4-(2-methylcarbamoyl-pyridin-4-yl)oxyphenyl)urea], aka Bay 43-9006. Efficacy is measured as a percentage of positive control activity.

Assay [2] has as its target T2, VEGFR2 kinase (Homo sapiens, UniProt P35968).
T2 construct: purchased Invitrogen Inc PV3660
Put plainly: In vitro VEGFR2 kinase assay. How it is done:
(§1) In Vitro VEGFR2 and PDGFRP Kinase Assays
(§2) 2.5 μl of ADP Quest assay buffer (DiscoverX Inc., cat. #90-0071) containing 20 ng VEGFR2 kinase (Invitrogen Inc, cat. #PV3660) or 25 ng PDGFRβ kinase (Invitrogen Inc., cat. #P3082) is dispensed to wells of a 1536 multi-well, black solid plate. 60 nl of 100× concentration of test compound in DMSO is dispensed to the well by passive pin transfer and incubated for 10 minutes at room temperature (approx. 22° C.). 2.5 μl of ADP Quest assay buffer containing 0.25 μg of poly Glu:Tyr (4:1) substrate peptide (Upstate Inc., cat. #12-440) and 60 μM ATP is then dispensed and the kinase reaction allowed to incubate at 30° C. for 2 hours. The assay plates are sealed and maintained in a humidified environment. After the 2 hour incubation, 2 μl of ADP Quest assay reagent A, followed by 2 μl of assay reagent B, is added. After an additional 30 minute incubation at room temperature, fluorescence intensity is measured on a Molecular Devices Aquest multi-mode plate reader or other suitable plate reader (fluorescence excitation filter: 530/25 [Peak(nm)/FWHM passband(nm)]; dichroic beamsplitter: 561 nm longpass; fluorescence emission filter: 580/10 [Peak(nm)/FWHM passband(nm)]. The assay measures the conversion of a non-fluoresecent molecule to fluorescent resorufin, which correlates with kinase activity. Negative control activity is measured with DMSO lacking any test compound. The positive control is [N-(3-trifluoromethyl-4-chlorophenyl)-N′-(4-(2-methylcarbamoyl-pyridin-4-yl)oxyphenyl)urea], aka Bay 43-9006. Efficacy is measured as a percentage of positive control activity.

Assay [3] has as its target T3, PDGFRβ kinase (Homo sapiens, UniProt P09619).
T3 construct: purchased Invitrogen Inc. P3082
Kind of assay: In vitro PDGFRβ kinase assay. As to the method: as §1, §2

T2 sequence (P35968 20-1356): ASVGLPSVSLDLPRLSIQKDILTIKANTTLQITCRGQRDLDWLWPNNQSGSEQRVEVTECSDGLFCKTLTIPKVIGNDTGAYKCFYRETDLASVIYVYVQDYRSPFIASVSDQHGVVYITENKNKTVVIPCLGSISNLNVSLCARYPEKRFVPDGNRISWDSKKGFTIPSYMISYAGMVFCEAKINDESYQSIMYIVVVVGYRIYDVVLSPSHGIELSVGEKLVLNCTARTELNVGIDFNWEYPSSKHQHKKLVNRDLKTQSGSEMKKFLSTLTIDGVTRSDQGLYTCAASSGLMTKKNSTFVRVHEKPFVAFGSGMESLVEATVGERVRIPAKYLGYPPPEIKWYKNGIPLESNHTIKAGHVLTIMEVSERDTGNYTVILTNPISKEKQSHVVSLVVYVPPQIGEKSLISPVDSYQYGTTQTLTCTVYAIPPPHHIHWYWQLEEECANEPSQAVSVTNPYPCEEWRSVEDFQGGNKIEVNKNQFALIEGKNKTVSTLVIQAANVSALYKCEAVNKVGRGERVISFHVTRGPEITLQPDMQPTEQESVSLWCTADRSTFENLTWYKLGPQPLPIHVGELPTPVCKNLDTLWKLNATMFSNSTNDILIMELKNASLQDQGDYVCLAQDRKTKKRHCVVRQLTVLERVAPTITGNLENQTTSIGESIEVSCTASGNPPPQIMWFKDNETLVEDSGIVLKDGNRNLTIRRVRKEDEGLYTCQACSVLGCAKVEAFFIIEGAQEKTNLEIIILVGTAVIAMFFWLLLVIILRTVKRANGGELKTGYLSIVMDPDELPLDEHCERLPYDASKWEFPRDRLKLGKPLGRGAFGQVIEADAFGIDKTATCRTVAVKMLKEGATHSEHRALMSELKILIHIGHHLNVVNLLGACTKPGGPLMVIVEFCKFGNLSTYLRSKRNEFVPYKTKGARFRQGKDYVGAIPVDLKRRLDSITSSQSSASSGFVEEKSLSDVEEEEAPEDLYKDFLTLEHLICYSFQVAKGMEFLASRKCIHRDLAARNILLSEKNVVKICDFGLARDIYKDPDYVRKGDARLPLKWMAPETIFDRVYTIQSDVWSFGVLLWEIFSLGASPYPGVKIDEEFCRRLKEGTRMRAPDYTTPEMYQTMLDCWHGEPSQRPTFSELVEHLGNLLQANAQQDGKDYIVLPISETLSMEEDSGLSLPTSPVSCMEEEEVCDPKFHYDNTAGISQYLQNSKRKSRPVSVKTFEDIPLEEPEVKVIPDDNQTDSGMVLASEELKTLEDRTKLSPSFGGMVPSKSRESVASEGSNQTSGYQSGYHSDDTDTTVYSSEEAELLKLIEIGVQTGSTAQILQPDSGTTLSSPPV
T1 sequence (P15056 416-766): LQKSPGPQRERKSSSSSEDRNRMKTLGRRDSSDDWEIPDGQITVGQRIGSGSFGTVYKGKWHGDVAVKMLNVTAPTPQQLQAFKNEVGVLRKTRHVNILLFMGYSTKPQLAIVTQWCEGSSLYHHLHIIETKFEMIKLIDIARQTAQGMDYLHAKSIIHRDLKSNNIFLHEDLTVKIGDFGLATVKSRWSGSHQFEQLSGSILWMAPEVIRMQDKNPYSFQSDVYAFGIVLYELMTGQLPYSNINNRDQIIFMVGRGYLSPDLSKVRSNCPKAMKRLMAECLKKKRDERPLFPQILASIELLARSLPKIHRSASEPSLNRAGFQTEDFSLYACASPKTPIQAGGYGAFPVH
T3 sequence (P09619 33-1106): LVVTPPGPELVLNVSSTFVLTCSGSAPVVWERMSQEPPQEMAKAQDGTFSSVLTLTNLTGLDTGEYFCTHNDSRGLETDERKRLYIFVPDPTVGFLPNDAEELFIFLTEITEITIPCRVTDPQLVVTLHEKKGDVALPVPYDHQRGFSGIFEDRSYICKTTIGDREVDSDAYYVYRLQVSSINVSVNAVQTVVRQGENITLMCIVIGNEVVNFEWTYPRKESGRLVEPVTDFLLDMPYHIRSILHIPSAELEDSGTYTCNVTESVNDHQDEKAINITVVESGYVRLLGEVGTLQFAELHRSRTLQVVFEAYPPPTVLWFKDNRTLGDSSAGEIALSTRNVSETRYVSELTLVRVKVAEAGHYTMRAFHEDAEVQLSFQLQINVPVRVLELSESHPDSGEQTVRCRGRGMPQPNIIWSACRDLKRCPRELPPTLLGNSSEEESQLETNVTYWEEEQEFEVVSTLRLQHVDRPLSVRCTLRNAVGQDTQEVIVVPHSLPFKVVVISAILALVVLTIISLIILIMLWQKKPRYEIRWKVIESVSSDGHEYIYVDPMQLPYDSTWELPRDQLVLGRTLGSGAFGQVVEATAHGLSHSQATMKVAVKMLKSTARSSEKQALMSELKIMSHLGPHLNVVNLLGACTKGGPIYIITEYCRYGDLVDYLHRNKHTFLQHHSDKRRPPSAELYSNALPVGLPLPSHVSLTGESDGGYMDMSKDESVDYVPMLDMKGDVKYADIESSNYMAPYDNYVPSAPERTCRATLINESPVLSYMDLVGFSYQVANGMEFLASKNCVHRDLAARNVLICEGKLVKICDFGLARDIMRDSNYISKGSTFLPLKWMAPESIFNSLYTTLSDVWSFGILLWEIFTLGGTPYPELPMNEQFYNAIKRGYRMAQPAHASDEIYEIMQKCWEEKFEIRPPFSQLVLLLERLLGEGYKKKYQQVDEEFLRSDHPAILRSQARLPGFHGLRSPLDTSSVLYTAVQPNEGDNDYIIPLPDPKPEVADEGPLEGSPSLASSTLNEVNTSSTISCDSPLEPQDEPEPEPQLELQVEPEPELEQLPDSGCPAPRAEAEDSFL

As to `Cn1cc(-c2cc(Oc3cccc(NC(=O)c4ccc(C#N)cc4)c3)ccn2)cn1` [Example 47, 4-Cyano-N-(3-(2-(1-methyl-1H-pyrazol-4-yl)pyridin-4-yloxy)phenyl)benzamide], the results for the IC50 in assay [1], in assay [2] and in assay [3] were ≤ 10 µM, > 10 µM and > 10 µM, respectively.
Turning to `Cn1cc(-c2cc(Oc3cccc(NC(=O)c4ccccc4C(=O)c4ccccc4)c3)ccn2)cn1` [Example 49, 2-Benzoyl-N-(3-(2-(1-methyl-1H-pyrazol-4-yl)pyridin-4-yloxy)phenyl)benzamide], the IC50 in assay [1] is > 10 µM; in assay [2], ≤ 10 µM; in assay [3], ≤ 10 µM.
Consider `Cn1cc(-c2cc(Oc3cccc(NC(=O)c4cccc(C(=O)c5ccccc5)c4)c3)ccn2)cn1` [Example 50, 3-Benzoyl-N-(3-(2-(1-methyl-1H-pyrazol-4-yl)pyridin-4-yloxy)phenyl)benzamide], for which the IC50 was > 10 µM in assay [1], ≤ 10 µM in assay [2] and > 10 µM in assay [3].
Turning to `Cn1cc(-c2cc(Oc3cccc(NC(=O)c4ccc(C(=O)c5ccccc5)cc4)c3)ccn2)cn1` [Example 51, 4-Benzoyl-N-(3-(2-(1-methyl-1H-pyrazol-4-yl)pyridin-4-yloxy)phenyl)benzamide], the IC50 was ≤ 10 µM in assay [1], ≤ 10 µM in assay [2] and > 10 µM in assay [3].
As to `Cn1cc(-c2cc(Oc3cccc(NC(=O)c4cccc5ccccc45)c3)ccn2)cn1` [Example 52, N-(3-(2-(1-Methyl-1H-pyrazol-4-yl)pyridin-4-yloxy)phenyl)-1-naphthamide], the IC50 in assay [1], in assay [2] and in assay [3] was > 10 µM each time.
In the case of `Cn1cc(-c2cc(Oc3cccc(NC(=O)c4ccc5ccccc5c4)c3)ccn2)cn1` [Example 53, N-(3-(2-(1-Methyl-1H-pyrazol-4-yl)pyridin-4-yloxy)phenyl)-2-naphthamide], the half-inhibitory concentration (IC50) in assay [1], in assay [2] and in assay [3] was > 10 µM throughout.
On to `Cn1cc(-c2cc(Oc3cccc(NC(=O)c4ccccc4Oc4ccccc4)c3)ccn2)cn1` [Example 54, N-(3-(2-(1-Methyl-1H-pyrazol-4-yl)pyridin-4-yloxy)phenyl)-2-phenoxybenzamide], for which the IC50 in assay [1] is ≤ 10 µM; in assay [2], > 10 µM; in assay [3], ≤ 10 µM.
In the case of `Cn1cc(-c2cc(Oc3cccc(NC(=O)c4cccc(Oc5ccccc5)c4)c3)ccn2)cn1` [Example 55, N-(3-(2-(1-Methyl-1H-pyrazol-4-yl)pyridin-4-yloxy)phenyl)-3-phenoxybenzamide], the IC50 is > 10 µM in assay [1], ≤ 10 µM in assay [2] and > 10 µM in assay [3].
As for `Cn1cc(-c2cc(Oc3cccc(NC(=O)c4ccc(Oc5ccccc5)cc4)c3)ccn2)cn1` [Example 56, N-(3-(2-(1-Methyl-1H-pyrazol-4-yl)pyridin-4-yloxy)phenyl)-4-phenoxybenzamide], the results for the IC50 in assay [1], in assay [2] and in assay [3] were ≤ 10 µM, ≤ 10 µM and > 10 µM, respectively.
For `Cn1cc(-c2cc(Oc3cccc(NC(=O)c4ccccc4-n4cccc4)c3)ccn2)cn1` [Example 57, N-(3-(2-(1-Methyl-1H-pyrazol-4-yl)pyridin-4-yloxy)phenyl)-2-(1H-pyrrol-1-yl)benzamide], the IC50 in assay [1], in assay [2] and in assay [3] was ≤ 10 µM in each case.
Turning to `Cn1cc(-c2cc(Oc3cccc(NC(=O)c4cccc(-n5cccc5)c4)c3)ccn2)cn1` [Example 58, N-(3-(2-(1-Methyl-1H-pyrazol-4-yl)pyridin-4-yloxy)phenyl)-3-(1H-pyrrol-1-yl)benzamide], the IC50 in assay [1], in assay [2] and in assay [3] was > 10 µM in each case.
For `Cn1cc(-c2cc(Oc3cccc(NC(=O)c4ccc(-n5cccc5)cc4)c3)ccn2)cn1` [Example 59, N-(3-(2-(1-Methyl-1H-pyrazol-4-yl)pyridin-4-yloxy)phenyl)-4-(1H-pyrrol-1-yl)benzamide], the figures for the half-inhibitory concentration (IC50) in assay [1], in assay [2] and in assay [3] were ≤ 10 µM, > 10 µM and > 10 µM, respectively.
Take `Cn1cc(-c2cc(Oc3cccc(NC(=O)c4ccc(-n5ccnc5)cc4)c3)ccn2)cn1` [Example 60, 4-(1H-Imidazol-1-yl)-N-(3-(2-(1-methyl-1H-pyrazol-4-yl)pyridin-4-yloxy)phenyl)benzamide]: the IC50 in assay [1] was ≤ 10 µM; in assay [2] it was > 10 µM; in assay [3], > 10 µM.
Consider `Cn1cc(-c2cc(Oc3cccc(NC(=O)c4ccc5c(c4)OCO5)c3)ccn2)cn1` [Example 61, N-(3-(2-(1-Methyl-1H-pyrazol-4-yl)pyridin-4-yloxy)phenyl)benzo[d][1,3]dioxole-5-carboxamide], for which the IC50 was ≤ 10 µM in assay [1], > 10 µM in assay [2] and > 10 µM in assay [3].
Take `Cn1cc(-c2cc(Oc3cccc(NC(=O)c4ccc5c(c4)OC(F)(F)O5)c3)ccn2)cn1` [Example 62, 2,2-Difluoro-N-(3-(2-(1-methyl-1H-pyrazol-4-yl)pyridin-4-yloxy)phenyl)benzo[d][1,3]dioxole-5-carboxamide]: the IC50 in assay [1], in assay [2] and in assay [3] was > 10 µM each time.
As to `Cn1cc(-c2cc(Oc3cccc(NC(=O)c4ccc5c(c4)C(=O)OC5=O)c3)ccn2)cn1` [Example 63, N-(3-(2-(1-Methyl-1H-pyrazol-4-yl)pyridin-4-yloxy)phenyl)-1,3-dioxo-1,3-dihydroisobenzofuran-5-carboxamide], the IC50 is ≤ 10 µM in assay [1], > 10 µM in assay [2] and ≤ 10 µM in assay [3].
For `Cn1cc(-c2cc(Oc3cccc(NC(=O)c4ccc5[nH]cnc5c4)c3)ccn2)cn1` [Example 64, N-(3-(2-(1-Methyl-1H-pyrazol-4-yl)pyridin-4-yloxy)phenyl)-1H-benzo[d]imidazole-5-carboxamide], the IC50 in assay [1] is ≤ 10 µM; in assay [2], ≤ 10 µM; in assay [3] it was > 10 µM.
In the case of `Cn1cc(-c2cc(Oc3cccc(NC(=O)c4ccc5[nH]nnc5c4)c3)ccn2)cn1` [Example 65, N-(3-(2-(1-Methyl-1H-pyrazol-4-yl)pyridin-4-yloxy)phenyl)-1H-benzo[d][1,2,3]triazole-5-carboxamide], the IC50 in assay [1] was ≤ 10 µM; in assay [2] it was ≤ 10 µM; in assay [3] it was > 10 µM.
For the compound `Cn1cc(-c2cc(Oc3cccc(NC(=O)c4ccc5occc5c4)c3)ccn2)cn1` [Example 66, N-(3-(2-(1-Methyl-1H-pyrazol-4-yl)pyridin-4-yloxy)phenyl)benzofuran-5-carboxamide], the IC50 in assay [1], in assay [2] and in assay [3] was > 10 µM throughout.
Consider `Cn1cc(-c2cc(Oc3cccc(NC(=O)c4ccc5c(c4)CCO5)c3)ccn2)cn1` [Example 67, N-(3-(2-(1-Methyl-1H-pyrazol-4-yl)pyridin-4-yloxy)phenyl)-2,3-dihydrobenzofuran-5-carboxamide], for which the IC50 in assay [1], in assay [2] and in assay [3] was > 10 µM in each case.
With `Cn1cc(-c2cc(Oc3cccc(NC(=O)c4cccc5c4OCC5)c3)ccn2)cn1` [Example 68, N-(3-(2-(1-Methyl-1H-pyrazol-4-yl)pyridin-4-yloxy)phenyl)-2,3-dihydrobenzofuran-7-carboxamide], the IC50 in assay [1] was ≤ 10 µM; in assay [2] it was > 10 µM; in assay [3], > 10 µM.
Turning to `Cn1cc(-c2cc(Oc3cccc(NC(=O)c4cccc5[nH]ccc45)c3)ccn2)cn1` [Example 69, N-(3-(2-(1-Methyl-1H-pyrazol-4-yl)pyridin-4-yloxy)phenyl)-1H-indole-4-carboxamide], the IC50 in assay [1] is ≤ 10 µM; in assay [2], ≤ 10 µM; in assay [3], > 10 µM.

The IC50 is the concentration at which inhibition is half-maximal. Read a high IC50 as weaker potency.
